SMILES strings stand for the structures.

Data set [1] can be described thus: in vivo. The note with it: mouse, plasma, po, 20 mg/kg.
Description: Plasma concentration in mouse at 20 mg/kg, po after 2 hrs
The nature of data set [2]: in vivo. The note with it: mouse, plasma, po, 20 mg/kg. The source holds these as a separate data set.
Description: Plasma concentration in mouse at 20 mg/kg, po after 6 hrs

Take `Cc1c(C)n(Cc2ccc(-c3ccccc3C(N)=O)cc2)c2ccc(C(=O)N[C@@H](C)c3cccc(C(C)C)c3)cc12`: the concentration at 2 h in the data set “in vivo [1]” was 2500 nM. The compound also returned a concentration at 6 h in the data set “in vivo [2]” of 100 nM.

For the compound `Cc1c(C)n(Cc2ccc(-c3ccccc3-c3n[nH]c(=O)o3)cc2)c2ccc(C(=O)N[C@@H](C)c3cccc(C(C)C)c3)cc12`, the concentration at 2 h in the data set “in vivo [1]” stood at 200 nM. The compound also came in with a concentration at 6 h in “in vivo [2]” of 10 nM.

In “in vivo [1]”, `Cc1c(C)n(Cc2ccc(-c3ccccc3C(=O)O)cc2)c2ccc(C(=O)N[C@@H](C)c3cccc(C4CC4)c3)cc12` yielded a concentration at 2 h of 19000 nM. Further, the concentration at 6 h in the data set “in vivo [2]” came to 2400 nM.

`Cc1c(C)n(Cc2ccc(-c3ccccc3C(=O)O)cc2)c2ccc(C(=O)N[C@@H](C)c3ccc(C(C)(C)C)cc3)cc12`: the concentration at 2 h in “in vivo [1]” was determined as 5600 nM. The concentration at 6 h in “in vivo [2]” stood at 1900 nM.

As for `Cc1c(C)n(Cc2ccc(-c3ccccc3C(=O)NO)cc2)c2ccc(C(=O)N[C@@H](C)c3cccc(C(C)C)c3)cc12`, the concentration at 2 h in “in vivo [1]” was determined as 400 nM. This compound yielded a concentration at 6 h in “in vivo [2]” of 30 nM.
